Measurements as given in article PMC10006169, “A phase I trial of LXS196, a protein kinase C (PKC) inhibitor, for metastatic uveal melanoma” (British Journal of Cancer, 2023).
Where two headings read alike, the source gives them in different places.

Test: Plasma pharmacokinetics (LC-MS/MS)
Format: in vivo, human
Settings: human, plasma; for concentration at 15 day: read-out: Cmin, Median (Min, max)
Experimental: In the dose escalation part of the study, PK samples were collected at various pre- and post-dose time points on C1D1, D2, D3, D15 and D16. Drug concentrations were assessed using a validated liquid chromatography-tandem mass spectrometry assay.

Structure (SMILES): CC1(N)CCN(c2cccnc2NC(=O)c2nc(-c3ncccc3C(F)(F)F)cnc2N)CC1 [LXS196]
- AUC(0-t) (oral, 500 mg, C1D1, 500 mg QD, n=10, read-out: AUC0-t, Median (Min, max)): 50700 ng·h/mL
- AUC(0-inf) (oral, 500 mg, C1D1, 500 mg QD, n=10, read-out: AUCinf, Geo-mean): 59500 ng·h/mL
- AUC(0-inf) (oral, 500 mg, C1D1, 500 mg QD, n=10, read-out: AUCinf, Mean (SD)): 63400 ng·h/mL
- AUC(0-inf) (oral, 500 mg, C1D1, 500 mg QD, n=10, read-out: AUCinf, Median (Min, max)): 61700 ng·h/mL
- Cmax (oral, 500 mg, C1D1, 500 mg QD, n=10, read-out: Cmax, Geo-mean): 4670 ng/mL
- Cmax (oral, 500 mg, C1D1, 500 mg QD, n=10, read-out: Cmax, Mean (SD)): 4970 ng/mL
- Cmax (oral, 500 mg, C1D1, 500 mg QD, n=10, read-out: Cmax, Median (Min, max)): 4380 ng/mL
- half-life (oral, 500 mg, C1D1, 500 mg QD, n=10, read-out: T1/2, Geo-mean (converted)): 10.1 h
- half-life (oral, 500 mg, C1D1, 500 mg QD, n=10, read-out: T1/2, Mean (SD) (converted)): 10.2 h
- half-life (oral, 500 mg, C1D1, 500 mg QD, n=10, read-out: T1/2, Median (Min, max) (converted)): 10.1 h
- Tmax (oral, 500 mg, C1D1, 500 mg QD, n=10, read-out: Tmax, Median (Min, max)): 1.03 h
- AUC(0-t) (oral, 500 mg, C1D15, 500 mg QD, n=9, read-out: AUC0-t, Geo-mean): 43100 ng·h/mL
- AUC(0-t) (oral, 500 mg, C1D15, 500 mg QD, n=9, read-out: AUC0-t, Mean (SD)): 45700 ng·h/mL
- AUC(0-t) (oral, 500 mg, C1D15, 500 mg QD, n=9, read-out: AUC0-t, Median (Min, max)): 41700 ng·h/mL
- Cmax (oral, 500 mg, C1D15, 500 mg QD, n=9, read-out: Cmax, Geo-mean): 3870 ng/mL
- Cmax (oral, 500 mg, C1D15, 500 mg QD, n=9, read-out: Cmax, Mean (SD)): 4170 ng/mL
- Cmax (oral, 500 mg, C1D15, 500 mg QD, n=9, read-out: Cmax, Median (Min, max)): 3700 ng/mL
- concentration at 15 day (oral, 500 mg, C1D15, 500 mg QD, n=9): 643 ng/mL
- Tmax (oral, 500 mg, C1D15, 500 mg QD, n=9, read-out: Tmax, Median (Min, max)): 1.07 h
- AUC(0-t) (oral, 800 mg, C1D1, 800 mg QD, n=1, read-out: AUC0-t, Geo-mean): 54300 ng·h/mL
- AUC(0-t) (oral, 800 mg, C1D1, 800 mg QD, n=1, read-out: AUC0-t, Mean (SD)): 54300 ng·h/mL
- AUC(0-t) (oral, 800 mg, C1D1, 800 mg QD, n=1, read-out: AUC0-t, Median (Min, max)): 54300 ng·h/mL
- AUC(0-inf) (oral, 800 mg, C1D1, 800 mg QD, n=1, read-out: AUCinf, Geo-mean): 66200 ng·h/mL
- AUC(0-inf) (oral, 800 mg, C1D1, 800 mg QD, n=1, read-out: AUCinf, Mean (SD)): 66200 ng·h/mL
- AUC(0-inf) (oral, 800 mg, C1D1, 800 mg QD, n=1, read-out: AUCinf, Median (Min, max)): 66200 ng·h/mL
- Cmax (oral, 800 mg, C1D1, 800 mg QD, n=1, read-out: Cmax, Geo-mean): 6080 ng/mL
- Cmax (oral, 800 mg, C1D1, 800 mg QD, n=1, read-out: Cmax, Mean (SD)): 6080 ng/mL
- Cmax (oral, 800 mg, C1D1, 800 mg QD, n=1, read-out: Cmax, Median (Min, max)): 6080 ng/mL
- half-life (oral, 800 mg, C1D1, 800 mg QD, n=1, read-out: T1/2, Geo-mean (converted)): 8.85 h
- half-life (oral, 800 mg, C1D1, 800 mg QD, n=1, read-out: T1/2, Mean (SD) (converted)): 8.85 h
- half-life (oral, 800 mg, C1D1, 800 mg QD, n=1, read-out: T1/2, Median (Min, max) (converted)): 8.85 h
- Tmax (oral, 800 mg, C1D1, 800 mg QD, n=1, read-out: Tmax, Median (Min, max)): 0.483 h
- AUC(0-inf) (oral, 1000 mg, C1D1, 1000 mg QD, n=3, read-out: AUCinf, Geo-mean): 75700 ng·h/mL
- AUC(0-inf) (oral, 1000 mg, C1D1, 1000 mg QD, n=3, read-out: AUCinf, Mean (SD)): 78000 ng·h/mL
- AUC(0-inf) (oral, 1000 mg, C1D1, 1000 mg QD, n=3, read-out: AUCinf, Median (Min, max)): 66000 ng·h/mL
- half-life (oral, 1000 mg, C1D1, 1000 mg QD, n=3, read-out: T1/2, Geo-mean (converted)): 9.94 h
- half-life (oral, 1000 mg, C1D1, 1000 mg QD, n=3, read-out: T1/2, Mean (SD) (converted)): 10 h
- half-life (oral, 1000 mg, C1D1, 1000 mg QD, n=3, read-out: T1/2, Median (Min, max) (converted)): 9.32 h
- AUC(0-t) (oral, 1000 mg, C1D1, 1000 mg QD, n=4, read-out: AUC0-t, Geo-mean): 69700 ng·h/mL
- AUC(0-t) (oral, 1000 mg, C1D1, 1000 mg QD, n=4, read-out: AUC0-t, Mean (SD)): 74300 ng·h/mL
- AUC(0-t) (oral, 1000 mg, C1D1, 1000 mg QD, n=4, read-out: AUC0-t, Median (Min, max)): 70100 ng·h/mL
- Cmax (oral, 1000 mg, C1D1, 1000 mg QD, n=4, read-out: Cmax, Geo-mean): 5080 ng/mL
- Cmax (oral, 1000 mg, C1D1, 1000 mg QD, n=4, read-out: Cmax, Mean (SD)): 5410 ng/mL
- Cmax (oral, 1000 mg, C1D1, 1000 mg QD, n=4, read-out: Cmax, Median (Min, max)): 5230 ng/mL
- Tmax (oral, 1000 mg, C1D1, 1000 mg QD, n=4, read-out: Tmax, Median (Min, max)): 2 h
- AUC(0-t) (oral, 1000 mg, C1D15, 1000 mg QD, n=2, read-out: AUC0-t, Geo-mean): 48000 ng·h/mL
- AUC(0-t) (oral, 1000 mg, C1D15, 1000 mg QD, n=2, read-out: AUC0-t, Mean (SD)): 48300 ng·h/mL
- AUC(0-t) (oral, 1000 mg, C1D15, 1000 mg QD, n=2, read-out: AUC0-t, Median (Min, max)): 48300 ng·h/mL
- Cmax (oral, 1000 mg, C1D15, 1000 mg QD, n=2, read-out: Cmax, Geo-mean): 4870 ng/mL
- Cmax (oral, 1000 mg, C1D15, 1000 mg QD, n=2, read-out: Cmax, Mean (SD)): 5110 ng/mL
- Cmax (oral, 1000 mg, C1D15, 1000 mg QD, n=2, read-out: Cmax, Median (Min, max)): 5110 ng/mL
- concentration at 15 day (oral, 1000 mg, C1D15, 1000 mg QD, n=2): 674 ng/mL
- Tmax (oral, 1000 mg, C1D15, 1000 mg QD, n=2, read-out: Tmax, Median (Min, max)): 0.792 h
- half-life (oral, across different doses, read-out: Terminal T1/2 (converted)): ~11 h
- Tmax (oral, fasting, 100–1000 mg QD and 200–400 mg BID, read-out: Tmax): ~1 h
- Tmax (po, D1 and D15, read-out: Median Tmax, range across dose groups): 0.483 to 2 h
- half-life (po, read-out: Mean terminal half-life (T1/2), range across dose groups): 8.49 to 13.8 h
